Test results taken from patent US20250129067A1 (Progentos Therapeutics, Inc., priority 2021, published 2025).
pIC50: −log10 of the molar value. Like-named read-outs stand apart in the source and are kept apart here.

Tests used:
PDGFRα = PDGFRα (Homo sapiens (Human), UniProt P16234); test: PDGFRα kinase enzyme assay (Promega PDGFRα Kinase Enzyme System, ADP-Glo); format: biochemical; conditions: 150 uM ATP
Method in brief: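 Read-out was ADP-Glo: remaining ATP depleted, ADP converted to luminescence and compared with a standard curve.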

[1] = test system: GPR17+ cells (newly differentiated oligodendrocytes); test: In vivo OPC differentiation, GPR17+ cells in brain; conditions: for In vivo GPR17+ cells, GPR17 Fold Induction (Over Vehicle): adult female C57BL/6 mice, PO or IP, treatment period 1-3 days, entire brain, fold change over vehicle treated animals
[2] = test system: Oligodendrocyte progenitor cells (OPCs); test: In vitro OPC differentiation assay, GPR17 expression (immunocytochemistry); conditions: 72 hours; for GPR17 Fold Induction (Over Vehicle; 3 μM): 3 μM (10× concentration, final 0.3 μM)
Protocol: To assess the effects of the PDGFRα inhibitors on OPC differentiation, primary OPCs were cultured and exposed to compounds. The number of newly generated oligodendrocytes was assessed by monitoring GPR17 expression. GPR17 is preferentially expressed in actively differentiating oligodendrocytes, allowing them to be distinguished from precursors and more differentiated oligodendrocytes.
Cortices from postnatal day (P) 1-3 rats were dissected and collected into ice cold Hank's Balanced Salt Solution (HBSS). […] Briefly, the cortical cell suspension was centrifuged and washed with buffer (0.5% BSA in PBS) and labeled with Anti-A2B^5 MicroBeads (10 μL beads per 1×10^7 cells) for 15 minutes at 4° C. Following the incubation, cells were washed once with BSA buffer to remove unlabeled beads. A2B^5 positive cells were eluted on the column using the AutoMACS® (Miltenyi, as per manufacturer's protocol using “Possel-s” program). Eluted cells were further washed twice with OPC growth media. Cell counts were performed using Countess III cell counter (ThermoFisher; AMQAX2000) and cells were plated.
The plates were allowed to sit at room temperature for 15 minutes to ensure proper dispersion of cells in a well. The plates were then transferred to the incubator (37° C.; 5% CO2).
Cells were then incubated for 72 hours at 37° C., 5% CO2 before immunostaining for GPR17 marker expression.
Following 72 hours in culture, cells were fixed with 4% paraformaldehyde for 15 minutes and then washed three times in Dulbecco's phosphate buffered saline (DPBS). Prior to immunostaining, cells were treated with a blocking solution (10% normal goat serum containing 1% BSA and 0.1% Triton® X-100 in DPBS) for 15 minutes at room temperature. Primary antibody (anti-GPR17 at 1:2000; Origene TA811615) was applied to cells overnight at 4° C. in incubation solution containing 1% normal goat serum, 1% BSA, and 0.1% Triton X-100 in DPBS. […] The secondary antibody was applied in incubation solution for 2 hours at room temperature, protected from light.
The number of differentiated GPR17+ cells was normalized to the total nuclei count and percent differentiated GPR17+ cells were reported. Statistical analysis was done using one-way ANOVA with multiple comparisons and post-hoc Tukey test in GraphPad Prism (GraphPad Software).

[3] = 11-point dose response, 10,000 nM to 0.169 nM, BLQ = below limit of quantitation, read-out: IC50 Values on PDGFRα Kinase Inhibition, IC50
[4] = Mus musculus, po, 24 h, read-out: GPR17 Fold Induction (Over Vehicle)
[5] = 11-point dose response, 10,000 nM to 0.169 nM, BLQ = below limit of quantitation
[6] = primary rat OPCs, 5 μM (10x; final 0.5 μM per method), percent GPR17+ cells as fold change over vehicle
[7] = 5 μM (10× concentration, final 0.5 μM), fold change over vehicle

Sequence of PDGFRα (P16234 24-1089): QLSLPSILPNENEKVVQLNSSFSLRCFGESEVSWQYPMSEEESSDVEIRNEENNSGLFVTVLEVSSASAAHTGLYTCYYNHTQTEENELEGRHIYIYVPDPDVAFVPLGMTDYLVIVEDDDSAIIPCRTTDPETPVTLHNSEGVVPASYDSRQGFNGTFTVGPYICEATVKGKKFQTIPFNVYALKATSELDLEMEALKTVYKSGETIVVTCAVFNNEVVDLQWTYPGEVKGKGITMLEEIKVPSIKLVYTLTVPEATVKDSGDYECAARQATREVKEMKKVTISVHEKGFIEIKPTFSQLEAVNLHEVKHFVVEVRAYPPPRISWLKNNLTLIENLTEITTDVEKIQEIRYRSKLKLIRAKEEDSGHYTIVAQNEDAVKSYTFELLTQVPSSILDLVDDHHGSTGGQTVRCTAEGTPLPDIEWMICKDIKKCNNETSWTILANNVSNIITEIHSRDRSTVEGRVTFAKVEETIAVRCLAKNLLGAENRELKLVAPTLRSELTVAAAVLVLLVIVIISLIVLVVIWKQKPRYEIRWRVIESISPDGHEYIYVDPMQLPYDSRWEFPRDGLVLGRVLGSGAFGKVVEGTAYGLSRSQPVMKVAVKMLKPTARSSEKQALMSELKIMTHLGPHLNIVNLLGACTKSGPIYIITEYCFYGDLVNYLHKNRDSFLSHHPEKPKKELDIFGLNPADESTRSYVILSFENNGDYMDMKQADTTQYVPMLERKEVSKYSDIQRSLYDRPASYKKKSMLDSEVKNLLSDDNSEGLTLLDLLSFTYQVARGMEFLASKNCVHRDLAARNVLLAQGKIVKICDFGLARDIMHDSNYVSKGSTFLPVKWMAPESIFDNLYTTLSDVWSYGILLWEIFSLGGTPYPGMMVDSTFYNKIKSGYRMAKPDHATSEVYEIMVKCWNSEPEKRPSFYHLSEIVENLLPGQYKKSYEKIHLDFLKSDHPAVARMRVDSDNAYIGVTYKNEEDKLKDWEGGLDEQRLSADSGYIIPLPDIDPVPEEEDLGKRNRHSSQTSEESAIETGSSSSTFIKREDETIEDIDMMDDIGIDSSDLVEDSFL

pIC50 (PDGFRα; [3]) | GPR17 Fold Induction (Over Vehicle; 3 μM) ([2]; fold change over vehicle) | SMILES | also measured
7.93 | 5.57 | C[C@@H](OC(=O)N1CCN(c2cnn3cc(-c4cnn(C)c4)ccc23)CC1)c1ccc(OC(F)(F)F)cc1 [Compound 268, (1R)-1-[4-(trifluoromethoxy)phenyl]ethyl 4-[6-(1-methyl-1H-pyrazol-4-yl)pyrazolo[1,5-a]pyridin-3-yl]piperazine-1-carboxylate] | fold induction at 3 mg/kg [1, 4]: 7.02
 | 5.90 | C[C@@H](OC(=O)N1CCN(c2cnc3cc(-c4cnn(C)c4)cnn23)CC1)c1ccc(C(F)(F)F)cc1 [Compound 283, (R)-1-(4-(trifluoromethyl)phenyl)ethyl 4-(7-(1-methyl-1H-pyrazol-4-yl)imidazo[1,2-b]pyridazin-3-yl)piperazine-1-carboxylate] | IC50 Values on PDGFRα Kinase Inhibition, IC50 (nM) (PDGFRα; [5]): BLQ; fold induction at 3 mg/kg [1, 4]: 6.8
 | 6.40 | C[C@@H](OC(=O)N1CCN(c2cnc3cc(-c4cnn(C)c4)cnn23)CC1)c1ccc(Cl)cc1 [Compound 282, (R)-1-(4-chlorophenyl)ethyl 4-(7-(1-methyl-1H-pyrazol-4-yl)imidazo[1,2-b]pyridazin-3-yl)piperazine-1-carboxylate] | IC50 Values on PDGFRα Kinase Inhibition, IC50 (nM) (PDGFRα; [5]): BLQ; fold induction at 3 mg/kg [1, 4]: 4.02
6.00 | 1.92 | CC(C)(C)OC(=O)N1CCN(c2cnn3cc(-c4ccccn4)ccc23)CC1 [Compound 216, tert-butyl 4-[6-(pyridin-2-yl)pyrazolo[1,5-a]pyridin-3-yl]piperazine-1-carboxylate] | 
5.13 | 2.54 | COc1cccc(-c2ccc3c(N4CCN(C(=O)OC(C)(C)C)CC4)cnn3c2)c1 [Compound 211, tert-butyl 4-(6-(3-methoxyphenyl)pyrazolo[1,5-a]pyridin-3-yl)piperazine-1-carboxylate] | 
6.28 | 5.20 | Cc1nn(C)cc1-c1ccc2c(N3CCN(C(=O)OC(C)(C)C)CC3)cnn2c1 [Compound 220, tert-butyl 4-(6-(1,3-dimethyl-1H-pyrazol-4-yl)pyrazolo[1,5-a]pyridin-3-yl)piperazine-1-carboxylate] | 
9.25 | 10.47 | [2H]C1([2H])N(C(=O)O[C@H](C)c2ccc(Cl)cc2)C([2H])([2H])C([2H])([2H])N(c2cnn3cc(-c4cnn(C)c4)ccc23)C1([2H])[2H] [Compound 290, (R)-1-(4-chlorophenyl)ethyl 4-(6-(1-methyl-1H-pyrazol-4-yl)pyrazolo[1,5-a]pyridin-3-yl)piperazine-1-carboxylate-2,2,3,3,5,5,6,6-d8] | 
6.37 | 7.44 | C[C@@H](OC(=O)N1CCN(c2cnn3cc(-c4cnn(C)c4)ccc23)CC1)c1ccncc1 [Compound 289, (R)-1-(pyridin-4-yl)ethyl 4-(6-(1-methyl-1H-pyrazol-4-yl)pyrazolo[1,5-a]pyridin-3-yl)piperazine-1-carboxylate] | 

Further lines, the compound ahead of its results:

SMILES | pIC50 (PDGFRα; [3]) | GPR17 Fold Induction (Over Vehicle; 3 μM) ([2]; fold change over vehicle) | also measured
Cn1cc(-c2ccc3c(N4CCN(C(=O)CC(C)(C)C)CC4)cnn3c2)cn1 [Compound 17, 3-[4-(3,3-dimethylbutanoyl)piperazin-1-yl]-6-(1-methyl-1H-pyrazol-4-yl)pyrazolo[1,5-a]pyridine] | 5.79 | 1.14 | fold induction at 3.3 mg/kg [1, 4]: 1.14
CCN(CC)CCNC(=O)c1c(C)[nH]c(/C=C2\C(=O)Nc3ccc(-c4csc(-c5ccccc5)n4)cc32)c1C [Amcasertib, amcasertib, reference compound] |  |  | In vivo GPR17+ cells, GPR17 Fold Induction (Over Vehicle) [1]: 1.49
Cn1cc(-c2ccc3c(N4CCN(c5ccc(Cc6ccccc6)nc5)CC4)cnn3c2)cn1 [Compound 151, 3-(4-(6-benzylpyridin-3-yl)piperazin-1-yl)-6-(1-methyl-1H-pyrazol-4-yl)pyrazolo[1,5-a]pyridine] | 5.56 | 20.40 | fold induction at 3 mg/kg [1, 4]: 1.73
CN1CCN(c2ccc(Nc3ncc4cc(C#N)c(=O)n(C5CCCC5)c4n3)cc2)CC1 [ON123300, reference compound] |  |  | pIC50 (PDGFRα; 20 ng purified PDGFRα, Poly (Glu4Tyr1) substrate, two hours, 11-point dose response, read-out: IC50 Values on PDGFRα Kinase Inhibition): 7.13; In vivo GPR17+ cells, GPR17 Fold Induction (Over Vehicle) [1]: 1.49; GPR17 Fold Induction (Over Vehicle; 5 μM) [2, 6]: 6.72
Cc1[nH]c(/C=C2\C(=O)Nc3ccc(F)cc32)c(C)c1C(=O)NC[C@H](O)CN1CCOCC1 [SU-14813, reference compound] |  |  | In vivo GPR17+ cells, GPR17 Fold Induction (Over Vehicle) [1]: 2.63; GPR17 Fold Induction (Over Vehicle; 5 μM) [2, 6]: 4.12
Cn1cc(-c2ccc3c(C4CCN(c5ncc(Cc6ccccc6)cn5)CC4)cnn3c2)cn1 [Compound 63, 3-[1-(5-benzylpyrimidin-2-yl)piperidin-4-yl]-6-(1-methyl-1H-pyrazol-4-yl)pyrazolo[1,5-a]pyridine] | 5.96 | 8.97 | fold induction at 3 mg/kg [1, 4]: 1.83
Cc1[nH]c(/C=C2\C(=O)Nc3ccccc32)c(C)c1CCC(=O)O [Orantinib, orantinib, reference compound] |  |  | In vivo GPR17+ cells, GPR17 Fold Induction (Over Vehicle) [1]: 2.43
Cc1ccc(Cc2cnc(N3CCN(c4cnn5cc(-c6cnn(C)c6)ccc45)CC3)nc2)cc1 [Compound 67, 3-{4-[5-(4-methylbenzyl)pyrimidin-2-yl]piperazin-1-yl}-6-(1-methyl-1H-pyrazol-4-yl)pyrazolo[1,5-a]pyridine] | 6.11 | 3.41 | fold induction at 10 mg/kg [1, 4]: 9.4
CN(C[C@@H]1COCCO1)S(=O)(=O)Nc1ccc2ccc3ncc(-c4cnn(C)c4)cc3c(=O)c2c1 [MK-2461, reference compound] |  |  | In vivo GPR17+ cells, GPR17 Fold Induction (Over Vehicle) [1]: 1.47
Cc1ccccc1C(OCCN(C)C)c1ccccc1 (stereo not drawn) [Orphenadrine] |  |  | In vivo GPR17+ cells, GPR17 Fold Induction (Over Vehicle) [1]: 1.07
S=C(NCc1ccc2c(c1)OCO2)N1CCN(c2ncnc3c2oc2ccccc23)CC1 [Amuvatinib, amuvatinib, reference compound] |  |  | In vivo GPR17+ cells, GPR17 Fold Induction (Over Vehicle) [1]: 2.18
Cn1cc(-c2cn3c(N4CCN(c5ncc(Cc6ccccc6)cn5)CC4)cnc3cn2)cn1 [Compound 21, 3-[4-(5-benzylpyrimidin-2-yl)piperazin-1-yl]-6-(1-methyl-1H-pyrazol-4-yl)imidazo[1,2-a]pyrazine] |  |  | fold induction at 150 mg/kg ([1]; Mus musculus, ip, 24 h, read-out: GPR17 Fold Induction (Over Vehicle)): 1.48
CC(C)(C)OC(=O)N1CCN(c2cnc3nc(C4CCOC4)ccn23)CC1 (stereo not drawn) [Compound 103, tert-butyl 4-(7-(tetrahydrofuran-3-yl)imidazo[1,2-a]pyrimidin-3-yl)piperazine-1-carboxylate] | < 5.00 | 0.65 | 
CC(C)OC(=O)N1CCN(c2cnn3cc(-c4cnn(C)c4)ccc23)CC1 [Compound 31, isopropyl 4-[6-(1-methyl-1H-pyrazol-4-yl)pyrazolo[1,5-a]pyridin-3-yl]piperazine-1-carboxylate] | 6.61 | 9.76 | GPR17 Fold Induction (Over Vehicle; 5 μM) [2, 7]: 6.22
Cn1cc(-c2ccc3c(N4CCN(c5nsc(Cc6ccccc6)n5)CC4)cnn3c2)cn1 [Compound 154, 5-benzyl-3-(4-(6-(1-methyl-1H-pyrazol-4-yl)pyrazolo[1,5-a]pyridin-3-yl)piperazin-1-yl)-1,2,4-thiadiazole] | 6.16 | 13.45 | 
CN(C)CCn1cc(-c2ccc3c(N4CCN(c5ncc(Cc6ccccc6)cn5)CC4)cnn3c2)cn1 [Compound 43, 2-(4-{3-[4-(5-benzylpyrimidin-2-yl)piperazin-1-yl]pyrazolo[1,5-a]pyridin-6-yl}-1H-pyrazol-1-yl)-N,N-dimethylethanamine] | 6.41 | 12.48 | GPR17 Fold Induction (Over Vehicle; 5 μM) [2, 7]: 6.92
Cn1cc(-c2ccc3c(C4=CCN(c5ncc(Cc6ccccc6)cn5)CC4)cnn3c2)cn1 [Compound 60, 3-[1-(5-benzylpyrimidin-2-yl)-1,2,3,6-tetrahydropyridin-4-yl]-6-(1-methyl-1H-pyrazol-4-yl)pyrazolo[1,5-a]pyridine] | 5.30 | 2.92 | 
CN1CCC(COC(=O)N2CCN(c3cnn4cc(-c5cnn(C)c5)ccc34)CC2)CC1 [Compound 20, (1-methylpiperidin-4-yl)methyl 4-[6-(1-methyl-1H-pyrazol-4-yl)pyrazolo[1,5-a]pyridin-3-yl]piperazine-1-carboxylate] | < 5.00 | 0.58 | 
COCCn1cc(-c2cc3ncc(N4CCN(C(=O)OC(C)(C)C)CC4)n3cn2)cn1 [Compound 88, tert-butyl 4-(7-(1-(2-methoxyethyl)-1H-pyrazol-4-yl)imidazo[1,2-c]pyrimidin-3-yl)piperazine-1-carboxylate] | 5.79 | 2.90 | 
Cn1cc(-c2ccn3c(N4CCN(c5ncc(Cc6ccccc6)cn5)CC4)cnc3n2)cn1 [Compound 121, 3-(4-(5-benzylpyrimidin-2-yl)piperazin-1-yl)-7-(1-methyl-1H-pyrazol-4-yl)imidazo[1,2-a]pyrimidine] | 6.09 | 4.71 | 
